According to PMC8147781, “Discovery of Pyrrolidine-2,3-diones as Novel Inhibitors of P. aeruginosa PBP3” (Antibiotics, 2021):
In brackets after ≈: the same amount, converted by molar mass.

Tests used:
[1] = test system: S. aureus 133; experiment: MIC broth microdilution, S. aureus; type: cell-based; settings: Staphylococcus aureus, 133; Table S3
Description: (§1) MIC determination was performed via standard broth microdilution according to the Clinical & Laboratory Standards institute guidelines. Overnight colonies grown on BD-Columbia agar with 5% Sheep Blood (Becton Dickinson, Franklin Lakes, NJ, USA), were diluted in Mueller Hinton Broth 2 cation adjusted (MH+) medium (Thermo Fisher Scientific) to a concentration of 5 × 10^5 CFU/mL. Serial dilutions (1:2) of test compounds were incubated at 37 °C with 5 × 10^4 bacteria in a final volume of 100 μL. Sterile and growth controls in the presence of 1% DMSO and PMBN if the case, and the positive controls, aztreonam (AZT) and tigecycline (TIG) were included in the experiments (Table S4). The MICs were determined visually after 18 h at 37 °C and confirmed by the addition of 10% PrestoBlue (ThermoFisher Scientific) reagent according to the manufacture’s protocol. The fluorescence signal of PrestoBlue reagent was measured at Ex/Em: 550/595 nm after 30 min incubation at 37 °C using at a ClarioStar microplate reader (BMG Labtech). PrestoBlue reduction occurs in the presence of living cells and consequently turns red in colour and is highly fluorescent.

[2] = test system: E. coli Neumann; experiment: MIC broth microdilution, E. coli; type: cell-based; settings: Escherichia coli; Table S3; read-out: MIC (µM) E. coli Neumann
Description: as §1

[3] = test system: Hep G2, epithelial liver cell line; experiment: Cytotoxicity assay (PrestoBlue), HepG2; settings: CC50, 72 h
Description: (§2) We finally tested the cytotoxicity of the compounds against four eukaryotic cell lines (Table 2 and Table S5), NRK-52E, an epithelial kidney cell line of Rattus norvegicus; Hep G2, an human epithelial liver cell line; and two suspension cell lines: CCRF-CEM, a T lymphoblast; and H9, a cutaneous T lymphocyte cell line.
(§3) Cell lines stored at −120 °C were thawed to 37 °C and resuspended in 10 mL of medium pre-warmed to 37 °C. Cells were pelleted at 300× g for 10 min, and then resuspended in fresh medium, seeded in a T-75 culture flask, and placed in a CO2 incubator (37 °C with 5% CO2 tension). Once the cells reached approximately 70–80% confluency, they were then passaged regularly. The adherent cell lines NRK52E, HepG2 and Huh 7 were washed once with 10 mL DPBS and detached with Trypsin-EDTA for 5 to 7 min and resuspended in 15 mL of the appropriate medium. The suspension cell line CCRF-CEM were diluted and resuspended in fresh RPMI 1640 PAN medium. To calculate the cell density, the cell resuspensions were diluted 1:6 with DPBS. Equal volumes of cell suspension and Trypan Blue were mixed and gently loaded into a haemocytometer (INCYTO, 31056 Republic of Korea). In each experiment, cell concentrations were adjusted to reach a concentration of 2.5 × 10^3 cell/well for NRK52E, 5 × 10^3 cell/well for HepG2, 6.2 × 10^4 cell/well for CCRF-CEM and 3 × 10^3 for H9. The cells were incubated with decreasing concentration of compounds (1 µL in 96% DMSO) for 72 h at 37 °C with 5% CO2 tension. Cycloheximide, a cytotoxic compound that interferes with the translocation step in eukaryotic protein synthesis was used as a control for the experiments. The assay was carried out in flat-bottom, transparent 96-well plates. Cell viability was determined using the PrestoBlue reagent (Thermo Fisher Scientific, Waltham, MA, USA) according to the manufacture’s protocol. First, 10× PrestoBlue was added to each well to obtain a 1× solution, and incubated at 37 °C for 45 min. Then, fluorescence was measured at Ex/Em: 550/595 nm using a ClarioStar microplate reader (BMG Labtech). Cytotoxicity was determined as the percentage of the difference in absorbance of the untreated sample to the treated sample. CC50 was calculated using the values obtained in each concentration using the sigmoidal dose-response by Prism v.8. The media used in each cell line is detailed in Table S6.

[4] = test system: H9, cutaneous T lymphocyte cell line; experiment: Cytotoxicity assay (PrestoBlue), H9; settings: CC50, 72 h
Description: as §2, §3

[5] = biological target: T1, PBP3 of P. aeruginosa (PaPBP3) (Pseudomonas aeruginosa, UniProt G3XD46); experiment: S2dfluo fluorescence transpeptidase assay; type: biochemical; settings: 300 nM PaPBP3, 30 min preincubation, 37 °C; for IC50: read-out: IC50 Determination with PaPBP3, S2dfluo Assay
T1 construct: P. aeruginosa PBP3 (amino acids 40 to 563); His-tag; made in house; host or cells: E. coli BL21 (DE3) Rosetta, plasmid pET41_PBP-3
Description: The assays were carried out in the presence of 5% DMSO and 0.01% Triton X100 to avoid the formation of colloidal structures and adsorption of protein and/or compounds to surfaces. The Z’-factor determined for the assay was 0.73 ± 0.28, indicating the suitability and robustness of the assay for high throughput screening (HTS) (Figure 1B,C).
The activity of soluble ^PaPBP3 (300 nM) was measured in the presence of 0.8 mM S2d, 1 mM D-alanine and 0.5 mM mBBr for 25 min by monitoring the increase in the fluorescence intensity of mBBr at Ex/Em: 394/490 nm using an Infinite M1000 microplate reader (Tecan, Männedorf, Switzerland). To test the effect of inhibitors, 100 µM or 0.8 to 100 µM of compounds diluted in 96% DMSO were incubated for 30 min and 450 rpm with 300 nM soluble PBP3. The incubation period was set to improve the binding of non-covalent inhibitors and 0.01% Triton X100 (Sigma-Aldrich, Taufkirchen, Germany) was added to prevent aggregation of compounds. The enzyme reaction was started by adding a substrate mix of 0.8 mM S2d and […]. The enzyme, compound and substrate mix were mixed 1:1, pipetted with a Liquidator 96 (Melter Toledo, Gießen, Germany) and the fluorescence intensity was directly monitored with an Infinite M1000 microplate reader (Tecan) at Ex/Em: 394/490 nm. The assay was performed in black, flat-bottom 96-well microplates (Greiner Bio-One, Kremsmünster, Austria) at 37 °C in Sorensen Phosphate Buffer (57 mM Na2HPO4 and 10 mM KH2PO4, pH 7.5 + 0.01% Triton X-100). The velocity of the PBP3 reaction was calculated in the presence of each concentration of compound and the velocity values were used to estimate IC50 by sigmoidal nonlinear regression, using Prism v.9 software (San Diego, CA, USA) and the velocity of the reaction at each concentration.

[6] = test system: NRK-52E, epithelial kidney cell line; experiment: Cytotoxicity assay (PrestoBlue), NRK52E; settings: CC50, 72 h
Description: as §2, §3

[7] = test system: B. subtilis 168; experiment: MIC broth microdilution, B. subtilis; type: cell-based; settings: Bacillus subtilis, 168; Table S3
Description: as §1

[8] = test system: T-lymphoblast CCRF-CEM cell line; experiment: Cytotoxicity assay (PrestoBlue), CCRF-CEM; settings: for Cytotoxicity CCRF-CEM: CC50, 72 h; for cytotoxic potential at the tested cell lines: four cell lines: NRK-52E, Hep G2, CCRF-CEM, H9
Description: as §2, §3

T1 sequence (G3XD46 40-563): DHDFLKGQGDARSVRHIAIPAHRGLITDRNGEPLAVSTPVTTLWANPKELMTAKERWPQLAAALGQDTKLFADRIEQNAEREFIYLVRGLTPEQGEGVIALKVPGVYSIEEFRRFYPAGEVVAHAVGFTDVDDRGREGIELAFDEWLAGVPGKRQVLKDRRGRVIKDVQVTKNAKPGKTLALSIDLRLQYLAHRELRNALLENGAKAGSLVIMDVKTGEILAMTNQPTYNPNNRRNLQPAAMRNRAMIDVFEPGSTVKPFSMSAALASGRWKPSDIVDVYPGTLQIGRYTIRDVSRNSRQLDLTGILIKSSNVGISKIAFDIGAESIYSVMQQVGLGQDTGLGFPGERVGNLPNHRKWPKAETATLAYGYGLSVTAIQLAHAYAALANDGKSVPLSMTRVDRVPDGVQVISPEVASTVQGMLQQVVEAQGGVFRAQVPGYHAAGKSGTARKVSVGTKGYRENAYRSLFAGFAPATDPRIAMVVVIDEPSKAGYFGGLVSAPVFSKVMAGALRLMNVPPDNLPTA

| Structure (SMILES) | MIC [1] [µM] | MIC [2] [µM] | Cytotoxicity effect (µM) Epithelial liver HepG2 [3] [µM] | Cytotoxicity effect (µM) T-lymphocyte H9 [4] [µM] | IC50 [5] [µM] | Cytotoxicity effect (µM) Epithelial kidney NRK52E [6] [µM] | MIC [7] [µM] | Cytotoxicity CCRF-CEM [8] [µM] | IC50 Determination with PaPBP3, S2dfluo Assay [5] | cytotoxic potential at the tested cell lines [8] |
| --- | --- | --- | --- | --- | --- | --- | --- | --- | --- | --- |
| O=C(C1=C(O)C(=O)N(Cc2cccc(F)c2)C1c1ccc(Cl)cc1)c1ccc(Br)cc1 (stereo not drawn) [Compound 1] | > 100 | > 100 | > 100 | > 100 | 28 ± 9 | > 100 | > 100 | >100 | – | – |
| O=C1NC(c2ccc(Cl)cc2)C(C(=O)c2ccc(Br)cc2)=C1O (stereo not drawn) [Compound 32, 4-(4-bromobenzoyl)-5-(4-chlorophenyl)-3-hydroxy-1,5-dihydropyrrol-2-one] | > 100 | > 100 | > 100 | > 100 | > 100 | 98 ± 5 | 100 (≈ 39.3 µg/mL) | 94 ± 6 | loss of the inhibitory effect | – |
| CCN1C(=O)C(O)=C(C(=O)c2ccc(Br)cc2)C1c1ccc(Cl)cc1 (stereo not drawn) [Compound 33] | > 100 | > 100 | > 100 | > 100 | > 100 | 84 ± 5 | > 100 | 58 ± 6 | loss of the inhibitory effect | – |
| O=C(C1=C(O)C(=O)N(Cc2cc3ccccc3[nH]2)C1c1ccc(Cl)cc1)c1ccc(Br)cc1 (stereo not drawn) [Compound 34, 4-(4-bromobenzoyl)-5-(4-chlorophenyl)-3-hydroxy-1-(1H-indol-2-ylmethyl)-5H-pyrrol-2-one] | 6.25 (≈ 3.26 µg/mL) | > 100 | > 100 | > 100 | 14 ± 9 | > 100 | 25 (≈ 13 µg/mL) | >100 | – | – |
| O=C(C1=C(O)C(=O)N(Cc2cc3cc(Cl)ccc3[nH]2)C1c1ccc(Cl)cc1)c1ccc(Br)cc1 (stereo not drawn) [Compound 35] | 3.13 (≈ 1.74 µg/mL) | > 100 | > 100 | 96 ± 7 | 3 ± 1 | 53 ± 5 | 6.25 (≈ 3.48 µg/mL) | > 100 | – | – |
| O=C(C1=C(O)C(=O)N(Cc2cc3cnccc3[nH]2)C1c1ccc(Cl)cc1)c1ccc(Br)cc1 (stereo not drawn) [Compound 36] | > 100 | > 100 | 1 ± 2 | 48 ± 2 | > 100 | 58 ± 3 | > 100 | – | – | high cytotoxic potential |
| O=C(C1=C(O)C(=O)N(CCc2cc3ccccc3[nH]2)C1c1ccc(Cl)cc1)c1ccc(Br)cc1 (stereo not drawn) [Compound 37] | 6.25 (≈ 3.35 µg/mL) | > 100 | 20 ± 4 | 19 ± 6 | 16 ± 8 | 9 ± 12 | 3.13 (≈ 1.68 µg/mL) | 8 ± 6 | – | high cytotoxic potential |
| O=C(C1=C(O)C(=O)N(Cc2nc3ccccc3[nH]2)C1c1ccc(Cl)cc1)c1ccc(Br)cc1 (stereo not drawn) [Compound 38] | > 100 | > 100 | > 100 | > 100 | 100 ± 11 | > 100 | > 100 | >100 | drastic loss of the inhibitory activity | – |
| O=C(C1=C(O)C(=O)N(CCc2c[nH]c3ccccc23)C1c1ccc(Cl)cc1)c1ccc(Br)cc1 (stereo not drawn) [Compound 40] | > 100 | > 100 | > 100 | > 100 | 8 ± 4 | > 100 | > 100 | 93 ± 4 | – | – |
| O=C(C1=C(O)C(=O)N(Cc2ccco2)C1c1ccc(Cl)cc1)c1ccc(Br)cc1 (stereo not drawn) [Compound 41, 4-(4-bromobenzoyl)-5-(4-chlorophenyl)-1-(furan-2-ylmethyl)-3-hydroxy-5H-pyrrol-2-one] | > 100 | > 100 | > 100 | > 100 | > 100 | > 100 | > 100 | >100 | abolished the inhibitory activity | – |
| O=C(C1=C(O)C(=O)N(Cc2cscn2)C1c1ccc(Cl)cc1)c1ccc(Br)cc1 (stereo not drawn) [Compound 42] | > 100 | > 100 | > 100 | > 100 | > 100 | > 100 | > 100 | >100 | abolished the inhibitory activity | – |
| CCNC1=C(C(=O)c2ccc(Br)cc2)C(c2ccc(Cl)cc2)N(Cc2cccc(F)c2)C1=O (stereo not drawn) [Compound 43, 4-(4-bromobenzoyl)-5-(4-chlorophenyl)-3-(ethylamino)-1-[(3-fluorophenyl)methyl]-5H-pyrrol-2-one] | > 100 | > 100 | > 100 | > 100 | > 100 | 73 ± 9.2 | > 100 | > 100 | – | – |
